This note sets out measurements from patent US10421774B2 (priority 2016, dated 2019).

What all share (experiment): microbe, parasite or virus in culture
Common to all, as to format: cell-based, HIV-1

In test [1] the test system is NLRepRlucP373S recombinant wild type (WT) virus. The settings on record: Human immunodeficiency virus 1, MT2, read-out: WT EC50. As to the method:
(§1) Cells. MT-2 cells and 293T cells were obtained from the NIH AIDS Research and Reference Reagent Program. Cell lines were sub-cultured twice a week in either RPMI 1640 (MT-2) or DMEM (293T, HeLa) media supplemented with 10% heat inactivated fetal bovine serum (FBS), 100 units/mL of penicillin G and 100 μg/mL of streptomycin. The DMEM medium was additionally supplemented with 10 mM HEPES buffer, pH 7.55, 2 mM L-glutamine and 0.25 μg/mL of amphotericin B.
(§2) Viruses. NLRepRluc virus contains the Renilla luciferase marker in place of the viral nef gene. The proviral plasmid pNLRepRluc was constructed at Bristol-Myers Squibb, starting from a proviral NL4-3 clone (B subtype) that was obtained from the NIH AIDS Research and Reference Reagent Program. The parental recombinant wild type (WT) virus (NLRepRlucP373S) was derived from NLRepRluc and contains the additional substitution of P373 for serine in Gag (within the SP1 spacer), the most common 373 variation in subtype B. Other recombinant viruses (A364V, V370A/ΔT371 and the “T3325 triple” (T332S/V362I+HIV-1 protease R41G)) were generated by site-directed mutagenesis of plasmid pNLRepRlucP373S to introduce those amino acid substitutions in Gag and protease. Recombinant virus DNA was then used to generate virus stocks by transfection of 293T cells (Lipofectamine PLUS kit, Invitrogen). Titers of virus stocks were determined using a luciferase assay (Dual-Luciferase® Reporter Assay System, Promega, Milwaukee, Wis., USA) endpoint.
(§3) Multiple cycle drug susceptibility assay. Pellets of MT-2 cells were infected with NLRepRlucP373S Gag site-directed viruses, where initial inocula of the reporter strains were normalized using equivalent endpoint luciferase activity signals. Such cell-virus mixtures were resuspended in medium, incubated for 1-hour at 37° C./CO2, and added to compound containing 96-well plates at a final cell density of 10,000 cells per well. The test compounds were 3-fold serially diluted in 100% DMSO, and assayed at a final DMSO concentration of 1%. After 4-5 day incubation at 37° C./CO2, virus yields were determined by Renilla luciferase activity (Dual-Luciferase® Reporter Assay System, Promega). The endpoint luminescence was detected on a Wallac Trilux (PerkinElmer).
The 50% inhibitory concentrations (EC50S) were calculated by using the exponential form of the median effect equation where Percent Inhibition=1/[1+(EC50/drug conc.^m], where m is a parameter that reflects the slope of the concentration-response curve. Background was taken as the residual signal observed upon inhibition at the highest concentration of a control protease inhibitor, NFV (3 μM).
The 90% inhibitory concentrations (EC90S) were calculated by using the exponential form of the median effect equation where ECF=[(F/(100−F)]^1/H·EC50, where H is a parameter that reflects the slope of the concentration-response curve. Background was taken as the residual signal observed upon inhibition at the highest concentration of a control protease inhibitor, NFV (3 μM).

For test [2], the system named is A364V site directed mutant virus. The settings on record: Human immunodeficiency virus 1, MT2, read-out: A364V EC50. As to the method: as §1, §2, §3
(§4) HIV-1 NL4-3 expressing Renilla luciferase gene was converted to the gag V370A/ΔT371 virus by site directed mutagenesis. A364V is a site directed mutant.
(§5) All three recombinant viruses were used as described above in the HIV cell culture assay for the NL4-3 virus.

The subject of test [3] is gag V370A/ΔT371 virus. Conditions: Human immunodeficiency virus 1, MT2, read-out: V370A/ΔT371 EC50. On the procedure:
as §1, §2, §3, §4, §5

The subject of test [4] is T332S/V362I/Pr R41G virus. The settings on record: Human immunodeficiency virus 1, MT2, read-out: T332S/V362I/pr41G EC50. On the procedure: as §1, §2, §3
T332sN362I/Pr R41G (N14.3, B Clade) virus′ was obtained as follows: Selection for resistance of HIV-1 strain […] virus with the HIV maturation inhibitor (MI) compound
At passage 8 virus was harvested and sequenced.
as §5

On to `C=C(C)[C@@H]1CC[C@]2(NCCN3CCS(=O)(=O)CC3)CC[C@]3(C)[C@H](CC[C@@H]4[C@@]5(C)CC=C(C6=CCC(COc7cc(C)sn7)(C(=O)O)CC6)C(C)(C)[C@@H]5CC[C@]43C)[C@@H]12` (stereo partly drawn) [Example 12], for which the EC50 in test [1], in test [2], in test [3] and in test [4] was below 50 nM throughout.
In the case of `C=C(C)[C@@H]1CC[C@]2(NCCN3CCS(=O)(=O)CC3)CC[C@]3(C)[C@H](CC[C@@H]4[C@@]5(C)CC=C(C6=CCC(COc7nnnn7C)(C(=O)O)CC6)C(C)(C)[C@@H]5CC[C@]43C)[C@@H]12` (stereo partly drawn) [Example 13], the EC50 in test [1] amounted to 2 nM; in test [2], 24 nM; in test [3] it was 7 nM; in test [4] it was 7 nM.
Turning to `C=C(C)[C@@H]1CC[C@]2(NCCN3CCS(=O)(=O)CC3)CC[C@]3(C)[C@H](CC[C@@H]4[C@@]5(C)CC=C(C6=CCC(COc7nsc(=O)[nH]7)(C(=O)O)CC6)C(C)(C)[C@@H]5CC[C@]43C)[C@@H]12` (stereo partly drawn) [Example 14, 4-((1R,3aS,5aR,5bR,7aR,11aS,11bR,13aR,13bR)-3a-((2-(1,1-dioxidothiomorpholino)ethyl)amino)-5a,5b,8,8,11a-pentamethyl-1-(prop-1-en-2-yl)-2,3,3a,4,5,5a,5b,6,7,7a,8,11,11a,11 b,12,13,13a,13b-octadecahydro-1H-cyclopenta[a]chrysen-9-yl)-1-(((5-oxo-4,5-dihydro-1,2,4-thiadiazol-3-yl)oxy)methyl)cyclohex-3-ene-1-carboxylic acid], the EC50 in test [1] was 27 nM; in test [2] it was above 50 nM; in test [3], above 50 nM; in test [4], above 50 nM.
Take `C=C(C)[C@@H]1CC[C@]2(NCCN3CCS(=O)(=O)CC3)CC[C@]3(C)[C@H](CC[C@@H]4[C@@]5(C)CC=C(C6=CCC(COc7nccs7)(C(=O)O)CC6)C(C)(C)[C@@H]5CC[C@]43C)[C@@H]12` (stereo partly drawn) [Example 15, 4-((1R,3aS,5aR,5bR,7aR,11aS,11bR,13aR,13bR)-3a-((2-(1,1-dioxidothiomorpholino)ethyl)amino)-5a,5b,8,8,11a-pentamethyl-1-(prop-1-en-2-yl)-2,3,3a,4,5,5a,5b,6,7,7a,8,11,11a,11b,12,13,13a,13b-octadecahydro-1H-cyclopenta[a]chrysen-9-yl)-1-((thiazol-2-yloxy)methyl)cyclohex-3-ene-1-carboxylic acid]: the EC50 in test [1] worked out at 4 nM; in test [2] it was 2380 nM; in test [3], 390 nM; in test [4] it was 390 nM.
With `C=C(C)[C@@H]1CC[C@]2(NCCN3CCS(=O)(=O)CC3)CC[C@]3(C)[C@H](CC[C@@H]4[C@@]5(C)CC=C(C6=CCC(COc7cnnn7-c7ccccc7)(C(=O)O)CC6)C(C)(C)[C@@H]5CC[C@]43C)[C@@H]12` (stereo partly drawn) [Example 16], the EC50 in test [1] amounted to 5 nM; in test [2], 32 nM; in test [3], 30 nM; in test [4], 30 nM.
In the case of `C=C(C)[C@@H]1CC[C@]2(NCCN3CCS(=O)(=O)CC3)CC[C@]3(C)[C@H](CC[C@@H]4[C@@]5(C)CC=C(C6=CCC(COc7cnnn7C(C)C)(C(=O)O)CC6)C(C)(C)[C@@H]5CC[C@]43C)[C@@H]12` (stereo partly drawn) [Example 17, 4-((1R,3aS,5aR,5bR,7aR,11aS,11bR,13aR,13bR)-3a-((2-(1,1-dioxidothiomorpholino)ethyl)amino)-5a,5b,8,8,11a-pentamethyl-1-(prop-1-en-2-yl)-2,3,3a,4,5,5a,5b,6,7,7a,8,11,11a,11b,12,13,13a,13b-octadecahydro-1H-cyclopenta[a]chrysen-9-yl)-1-(((1-isopropyl-1H-1,2,3-triazol-5-yl)oxy)methyl)cyclohex-3-ene-1-carboxylic acid], the EC50 in test [1] was 3 nM; in test [2] it was above 50 nM; in test [3], 15 nM; in test [4] it was 15 nM.
